According to US20230365546A1, “5-SUBSTITUTED INDOLE 3-AMIDE DERIVATIVES, PREPARATION METHOD AND USE THEREOF” (ORIGIANT PHARMACEUTICAL CO., LTD, priority 2020, published 2023):
pEC50: −log10 of the molar value. Like-named read-outs stand apart in the source and are kept apart here.

Assays:
SAPK4(h) = SAPK4(h) (Homo sapiens (Human), UniProt O15264); test: Kinase Profiler 10 μM panel
Procedure: (§1) In vitro kinase assays were conducted using Kinase Profiler services provided by Eurofins. The experimental method was as follows: the small molecule compound to be tested (0.001-10 μM), the protein kinase to be tested were incubated with a buffer containing substrate, 10 mM magnesium acetate, and [γ-^33P-ATP], the reaction was started by adding Mg\TPmix, after incubation for a period of time at room temperature, a 3% phosphate solution was added to the buffer to stop the reaction. Subsequently, 10 μL of the reaction mixture was quantitatively pipetted onto P30 filter paper, which was washed three times with 75 mM phosphate solution and then once with methanol. The P30 filter paper was air-dried and scintillation fluid was added for scintillation counting.

TrkB(h) = TrkB(h) (Homo sapiens (Human), UniProt Q16620); test: Kinase Profiler 10 μM panel
Procedure: as §1

MKK6(h) = MKK6(h) (Homo sapiens (Human), UniProt P52564); test: Kinase Profiler 10 μM panel
Procedure: as §1

PKCγ(h) = PKCγ(h) (Homo sapiens (Human), UniProt P05129); test: Kinase Profiler 10 μM panel
Procedure: as §1

MRCKα(h) = MRCKα(h) (Homo sapiens (Human), UniProt Q5VT25); test: Kinase Profiler 10 μM panel
Procedure: as §1

[1] = biological target: PI3 Kinase (p110b/p85b)(m) (Mus musculus (Mouse), UniProt Q8BTI9); test: Kinase Profiler 10 μM panel
Procedure: as §1

c-RAF(h) = c-RAF(h) (Homo sapiens (Human), UniProt P04049, Y340D/Y341D); test: Kinase Profiler 10 μM panel
Procedure: as §1

LIMK2(h) = LIMK2(h) (Homo sapiens (Human), UniProt P53671); test: Kinase Profiler 10 μM panel
Procedure: as §1

CRIK(h) = CRIK(h) (Homo sapiens (Human), UniProt O14578); test: Kinase Profiler 10 μM panel
Procedure: as §1

EphB3(h) = EphB3(h) (Homo sapiens (Human), UniProt P54753); test: Kinase Profiler 10 μM panel
Procedure: as §1

DCAMKL3(h) = DCAMKL3(h) (Homo sapiens (Human), UniProt Q9C098); test: Kinase Profiler 10 μM panel
CHK2(h) = CHK2(h) (Homo sapiens (Human), UniProt O96017); test: Kinase Profiler 10 μM panel
Procedure: as §1

PKD2(h) = PKD2(h) (Homo sapiens (Human), UniProt Q9BZL6); test: Kinase Profiler 10 μM panel
Procedure: as §1

PAK6(h) = PAK6(h) (Homo sapiens (Human), UniProt Q9NQU5); test: Kinase Profiler 10 μM panel
Procedure: as §1

JAK3(h) = JAK3(h) (Homo sapiens (Human), UniProt P52333); test: Kinase Profiler 10 μM panel
Procedure: as §1

ErbB2(h) = ErbB2(h) (Homo sapiens (Human), UniProt P04626); test: Kinase Profiler 10 μM panel
Procedure: as §1

ULK3(h) = ULK3(h) (Homo sapiens (Human), UniProt Q6PHR2); test: Kinase Profiler 10 μM panel
Procedure: as §1

JAK2(h) = JAK2(h) (Homo sapiens (Human), UniProt O60674); test: Kinase Profiler 10 μM panel
Procedure: as §1

EphA3(h) = EphA3(h) (Homo sapiens (Human), UniProt P29320); test: Kinase Profiler 10 μM panel
Procedure: as §1

Tec(h) activated = Tec(h) activated (Homo sapiens (Human), UniProt P42680); test: Kinase Profiler 10 μM panel
Procedure: as §1

EGFR(T790M)(h) = EGFR(T790M)(h) (Homo sapiens (Human), UniProt P00533, T790M); test: Kinase Profiler 10 μM panel
Procedure: as §1

HT-29 cells = test: Protection against programmed necrosis of HT-29 cells (TNF α/Smac mimetic/Z-VAD-FMK, CCK8); type: cell-based; conditions: Homo sapiens
NEK11(h) = NEK11(h) (Homo sapiens (Human), UniProt Q8NG66); test: Kinase Profiler 10 μM panel
Procedure: as §1

DYRK1A(h) = DYRK1A(h) (Homo sapiens (Human), UniProt Q13627); test: Kinase Profiler 10 μM panel
Procedure: as §1

Ron(h) = Ron(h) (Homo sapiens (Human), UniProt Q04912); test: Kinase Profiler 10 μM panel
Procedure: as §1

PrKX(h) = PrKX(h) (Homo sapiens (Human), UniProt P51817); test: Kinase Profiler 10 μM panel
Procedure: as §1

CDKL1(h) = CDKL1(h) (Homo sapiens (Human), UniProt Q00532); test: Kinase Profiler 10 μM panel
Procedure: as §1

mTOR/FKBP12(h) = mTOR/FKBP12(h) (Homo sapiens (Human), UniProt P42345); test: Kinase Profiler 10 μM panel
Procedure: as §1

[2] = TNF α/Smac mimetic/Z-VAD-FMK induced 24 h, CCK8, read-out: HT-29 (EC50)
[3] = TSZ-induced, FIG. 3, read-out: EC50 value, programmed necrosis model of HT-29

Chain of CHK2(h) (O96017 whole entry): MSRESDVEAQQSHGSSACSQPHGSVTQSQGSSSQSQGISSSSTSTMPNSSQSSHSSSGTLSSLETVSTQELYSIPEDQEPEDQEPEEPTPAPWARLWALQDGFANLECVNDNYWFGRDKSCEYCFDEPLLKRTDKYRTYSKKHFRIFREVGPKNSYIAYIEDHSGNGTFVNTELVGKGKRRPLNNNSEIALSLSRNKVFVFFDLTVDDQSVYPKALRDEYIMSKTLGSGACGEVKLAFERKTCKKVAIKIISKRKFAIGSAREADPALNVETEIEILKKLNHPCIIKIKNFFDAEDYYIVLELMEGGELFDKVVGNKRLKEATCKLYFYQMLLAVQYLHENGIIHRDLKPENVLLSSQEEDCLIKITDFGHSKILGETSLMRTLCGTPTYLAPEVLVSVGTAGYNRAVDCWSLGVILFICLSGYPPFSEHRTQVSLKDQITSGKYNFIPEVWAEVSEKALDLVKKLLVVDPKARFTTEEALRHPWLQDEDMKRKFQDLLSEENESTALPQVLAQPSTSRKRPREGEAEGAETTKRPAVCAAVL
Chain of EphB3(h) (P54753 34-998): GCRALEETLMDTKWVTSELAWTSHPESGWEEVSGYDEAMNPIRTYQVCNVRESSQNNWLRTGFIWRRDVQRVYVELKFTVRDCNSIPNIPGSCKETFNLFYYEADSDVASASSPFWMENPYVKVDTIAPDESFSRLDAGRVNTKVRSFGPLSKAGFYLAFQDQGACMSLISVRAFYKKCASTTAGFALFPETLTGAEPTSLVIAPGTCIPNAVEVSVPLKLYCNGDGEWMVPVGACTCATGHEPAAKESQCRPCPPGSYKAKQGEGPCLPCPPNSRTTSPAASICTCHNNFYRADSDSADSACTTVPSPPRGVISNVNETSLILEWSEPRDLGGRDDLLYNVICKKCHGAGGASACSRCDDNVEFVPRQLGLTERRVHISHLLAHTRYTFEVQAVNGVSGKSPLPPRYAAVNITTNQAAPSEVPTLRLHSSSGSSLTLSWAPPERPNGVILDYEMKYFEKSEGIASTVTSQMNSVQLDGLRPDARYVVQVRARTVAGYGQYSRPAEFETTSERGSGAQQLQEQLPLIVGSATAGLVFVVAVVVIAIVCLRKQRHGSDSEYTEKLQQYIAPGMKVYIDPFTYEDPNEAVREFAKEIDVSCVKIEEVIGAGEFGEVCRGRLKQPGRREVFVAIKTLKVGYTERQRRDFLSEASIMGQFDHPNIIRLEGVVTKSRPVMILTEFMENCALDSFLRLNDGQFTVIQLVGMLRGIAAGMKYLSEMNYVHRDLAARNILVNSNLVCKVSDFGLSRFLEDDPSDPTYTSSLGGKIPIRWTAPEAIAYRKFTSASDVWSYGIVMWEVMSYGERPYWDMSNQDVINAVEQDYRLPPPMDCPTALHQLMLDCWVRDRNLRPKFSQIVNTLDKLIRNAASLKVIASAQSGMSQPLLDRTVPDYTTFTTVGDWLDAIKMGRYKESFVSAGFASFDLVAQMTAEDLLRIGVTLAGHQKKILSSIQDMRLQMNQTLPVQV
Chain of EphA3(h) (P29320 21-983): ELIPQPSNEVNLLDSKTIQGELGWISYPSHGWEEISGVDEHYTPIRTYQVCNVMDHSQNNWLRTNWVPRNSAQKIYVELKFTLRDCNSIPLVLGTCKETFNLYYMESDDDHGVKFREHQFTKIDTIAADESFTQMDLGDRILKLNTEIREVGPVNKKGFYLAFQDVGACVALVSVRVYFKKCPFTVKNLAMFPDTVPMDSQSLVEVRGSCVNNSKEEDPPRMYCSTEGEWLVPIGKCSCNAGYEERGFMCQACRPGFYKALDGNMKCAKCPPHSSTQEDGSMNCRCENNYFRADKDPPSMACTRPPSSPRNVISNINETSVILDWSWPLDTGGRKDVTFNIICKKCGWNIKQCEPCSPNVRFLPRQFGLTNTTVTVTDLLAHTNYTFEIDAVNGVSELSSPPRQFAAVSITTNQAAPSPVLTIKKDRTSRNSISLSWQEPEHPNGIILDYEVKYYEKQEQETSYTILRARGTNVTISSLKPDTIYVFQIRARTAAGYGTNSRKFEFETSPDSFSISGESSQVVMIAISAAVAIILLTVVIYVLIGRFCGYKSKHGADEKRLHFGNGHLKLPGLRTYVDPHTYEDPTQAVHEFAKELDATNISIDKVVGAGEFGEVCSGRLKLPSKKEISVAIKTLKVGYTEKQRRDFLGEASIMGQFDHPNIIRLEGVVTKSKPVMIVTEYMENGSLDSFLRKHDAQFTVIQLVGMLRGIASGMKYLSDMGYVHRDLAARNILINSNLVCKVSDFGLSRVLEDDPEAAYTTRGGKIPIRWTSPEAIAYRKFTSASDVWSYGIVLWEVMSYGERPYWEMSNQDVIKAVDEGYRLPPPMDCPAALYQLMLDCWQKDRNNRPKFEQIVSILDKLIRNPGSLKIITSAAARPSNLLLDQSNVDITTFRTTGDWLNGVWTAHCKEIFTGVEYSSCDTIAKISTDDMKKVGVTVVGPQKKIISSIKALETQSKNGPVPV
Chain of JAK2(h) (O60674 whole entry): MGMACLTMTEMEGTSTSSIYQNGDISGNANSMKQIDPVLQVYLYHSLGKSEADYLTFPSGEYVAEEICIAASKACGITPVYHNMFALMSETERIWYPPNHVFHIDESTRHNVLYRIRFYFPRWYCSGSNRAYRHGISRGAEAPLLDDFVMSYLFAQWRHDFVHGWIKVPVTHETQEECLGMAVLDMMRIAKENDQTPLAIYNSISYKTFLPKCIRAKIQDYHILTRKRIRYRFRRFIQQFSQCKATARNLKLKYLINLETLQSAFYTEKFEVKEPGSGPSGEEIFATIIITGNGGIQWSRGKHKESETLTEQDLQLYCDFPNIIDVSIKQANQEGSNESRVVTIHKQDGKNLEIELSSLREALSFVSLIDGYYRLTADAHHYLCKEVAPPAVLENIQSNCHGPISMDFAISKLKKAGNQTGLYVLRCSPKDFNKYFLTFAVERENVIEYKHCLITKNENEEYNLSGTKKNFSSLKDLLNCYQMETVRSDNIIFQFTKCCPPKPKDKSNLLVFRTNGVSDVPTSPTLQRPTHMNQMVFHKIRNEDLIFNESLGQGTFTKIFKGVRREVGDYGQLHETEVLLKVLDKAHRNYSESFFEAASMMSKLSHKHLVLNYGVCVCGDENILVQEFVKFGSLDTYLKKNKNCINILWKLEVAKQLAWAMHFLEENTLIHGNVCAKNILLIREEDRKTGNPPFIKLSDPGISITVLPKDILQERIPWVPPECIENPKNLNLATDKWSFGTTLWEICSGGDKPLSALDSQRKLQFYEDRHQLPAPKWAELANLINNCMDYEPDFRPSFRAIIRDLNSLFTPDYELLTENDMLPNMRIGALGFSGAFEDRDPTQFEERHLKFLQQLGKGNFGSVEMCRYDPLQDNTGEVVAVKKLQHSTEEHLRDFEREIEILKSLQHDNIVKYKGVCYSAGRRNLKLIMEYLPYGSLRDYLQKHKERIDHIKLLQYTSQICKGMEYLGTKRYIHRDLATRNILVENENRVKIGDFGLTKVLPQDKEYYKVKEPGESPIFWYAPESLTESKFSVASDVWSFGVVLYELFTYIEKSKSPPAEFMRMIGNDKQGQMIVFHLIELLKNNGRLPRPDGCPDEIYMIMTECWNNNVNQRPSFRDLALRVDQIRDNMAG
Chain of Tec(h) activated (P42680 whole entry): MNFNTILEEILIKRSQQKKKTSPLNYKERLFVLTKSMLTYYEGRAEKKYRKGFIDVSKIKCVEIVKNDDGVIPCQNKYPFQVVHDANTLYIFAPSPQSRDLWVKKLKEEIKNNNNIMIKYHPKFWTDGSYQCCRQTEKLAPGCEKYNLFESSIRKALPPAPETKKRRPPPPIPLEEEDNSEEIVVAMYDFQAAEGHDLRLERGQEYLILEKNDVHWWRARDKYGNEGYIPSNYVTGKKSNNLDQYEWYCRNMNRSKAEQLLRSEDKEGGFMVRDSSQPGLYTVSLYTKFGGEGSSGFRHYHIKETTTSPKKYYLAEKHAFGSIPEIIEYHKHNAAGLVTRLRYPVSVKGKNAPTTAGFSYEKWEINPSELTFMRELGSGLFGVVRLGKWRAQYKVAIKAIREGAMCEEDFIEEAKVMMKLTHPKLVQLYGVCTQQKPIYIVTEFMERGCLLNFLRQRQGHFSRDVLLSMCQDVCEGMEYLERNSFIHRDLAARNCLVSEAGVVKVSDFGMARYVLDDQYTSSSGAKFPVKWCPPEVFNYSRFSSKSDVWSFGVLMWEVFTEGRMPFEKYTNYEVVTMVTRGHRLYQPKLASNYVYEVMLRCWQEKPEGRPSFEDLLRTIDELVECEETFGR

Q: What does the source list for `C[C@H](NC(=O)c1c[nH]c2ccc(-c3ccc4nc(NC(=O)C5CC5)sc4c3)cc12)c1cccc(F)c1` [Compound 34, (S)-5-(2-(cyclopropanecarboxamido)benzo[d]thiazol-6-yl)-N-(1-(3-fluorophenyl)ethyl)-1H-indole-3-carboxamide]?
A: Inhibition ratio (SAPK4(h)): 94%; Inhibition ratio (TrkB(h)): 100%; Inhibition ratio (MKK6(h)): 7%; Inhibition ratio (PKCγ(h)): 7%; Inhibition ratio (MRCKα(h)): 12%; Inhibition ratio [1]: 45%; Inhibition ratio (c-RAF(h)): 15%; Inhibition ratio (LIMK2(h)): 44%; Inhibition ratio (CRIK(h)): 5%; Inhibition ratio (EphB3(h)): 3%; Inhibition ratio (DCAMKL3(h)): 8%; Inhibition ratio (CHK2(h)): 22%; Inhibition ratio (PKD2(h)): 46%; Inhibition ratio (PAK6(h)): −14%; Inhibition ratio (JAK3(h)): 23%; Inhibition ratio (ErbB2(h)): 10%; Inhibition ratio (ULK3(h)): 30%; Inhibition ratio (JAK2(h)): 11%; Inhibition ratio (EphA3(h)): −8%; Inhibition ratio (Tec(h) activated): 17%; Inhibition ratio (EGFR(T790M)(h)): 40%; pEC50 (HT-29 cells; [2]): > 9.00; pEC50 (HT-29 cells; [3]): 9.93; Inhibition ratio (NEK11(h)): 35%; Inhibition ratio (DYRK1A(h)): 47%; Inhibition ratio (Ron(h)): 44%; Inhibition ratio (PrKX(h)): 6%; Inhibition ratio (CDKL1(h)): 50%; Inhibition ratio (mTOR/FKBP12(h)): 10%

Q: Which results are given for `C[C@H](NC(=O)c1cn(C)c2ccc(-c3ccn4nc(NC(=O)C5CC5)nc4c3)cc12)c1cccc(F)c1` [Compound 94, (S)-5-(2-(cyclopropanecarboxamido)-[1,2,4]triazolo[1,5-a]pyridin-7-yl)-N-(1-(3-fluorophenyl)ethyl)-1-methyl-1H-indole-3-carboxamide]?
A: Inhibition ratio/% (SAPK4(h)): 12%; Inhibition ratio/% (TrkB(h)): 0%; Inhibition ratio/% (MKK6(h)): 30%; Inhibition ratio/% (PKCγ(h)): 47%; Inhibition ratio/% (MRCKα(h)): −19%; Inhibition ratio/% [1]: 44%; Inhibition ratio/% (c-RAF(h)): −13%; Inhibition ratio/% (LIMK2(h)): 19%; Inhibition ratio/% (CRIK(h)): −7%; Inhibition ratio/% (EphB3(h)): 26%; Inhibition ratio/% (DCAMKL3(h)): 33%; Inhibition ratio/% (CHK2(h)): 8%; Inhibition ratio/% (PKD2(h)): 9%; Inhibition ratio/% (PAK6(h)): 49%; Inhibition ratio/% (JAK3(h)): 38%; Inhibition ratio/% (ErbB2(h)): 47%; Inhibition ratio/% (ULK3(h)): 3%; Inhibition ratio/% (JAK2(h)): 45%; Inhibition ratio/% (EphA3(h)): 6%; Inhibition ratio/% (Tec(h) activated): −20%; Inhibition ratio/% (EGFR(T790M)(h)): −10%; pEC50 (HT-29 cells; [2]): > 9.00; pEC50 (HT-29 cells; [3]): 10.92; Inhibition ratio/% (NEK11(h)): 44%; Inhibition ratio/% (DYRK1A(h)): 2%; Inhibition ratio/% (Ron(h)): 17%; Inhibition ratio/% (PrKX(h)): −10%; Inhibition ratio/% (CDKL1(h)): 35%; Inhibition ratio/% (mTOR/FKBP12(h)): 36%
